From PubChem BioAssay (NCI)
Where “and” joins values, the source holds several entries; their conditions need not be identical. Equal entries are not always repeated.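 How tested: cells in 96-well plates exposed to compound for 48 hours at five concentrations. Here, GI50 denotes the concentration required for 50% inhibition of growth. TGI: concentration producing complete growth inhibition.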

Tests used:
Assay in all cases: NCI tumour cell line growth inhibition, 48 h
OVCAR-3 ovarian = tested on: OVCAR-3 ovarian
SN12C renal = tested on: SN12C renal
IGROV1 ovarian = tested on: IGROV1 ovarian
CCRF-CEM leukemia = tested on: CCRF-CEM leukemia
M14 melanoma = tested on: M14 melanoma
EKVX NSCLC = tested on: EKVX NSCLC
SR leukemia = tested on: SR leukemia
SW-620 colon = tested on: SW-620 colon
K-562 leukemia = tested on: K-562 leukemia
UACC-257 melanoma = tested on: UACC-257 melanoma

SMILES	GI50 (OVCAR-3 ovarian)	TGI (OVCAR-3 ovarian)	GI50 (SN12C renal)	TGI (SN12C renal)	GI50 (IGROV1 ovarian)	TGI (IGROV1 ovarian)	GI50 (CCRF-CEM leukemia)	TGI (CCRF-CEM leukemia)	GI50 (M14 melanoma)	TGI (M14 melanoma)	GI50 (EKVX NSCLC)	TGI (EKVX NSCLC)	GI50 (SR leukemia)	TGI (SR leukemia)	GI50 (SW-620 colon)	TGI (SW-620 colon)	GI50 (K-562 leukemia)	TGI (K-562 leukemia)	GI50 (UACC-257 melanoma)	TGI (UACC-257 melanoma)
Cc1csc(/C=N/NC(=O)c2nnn(-c3ccnc4c(C(F)(F)F)cccc34)c2C)c1	90.3 µM	> 100 µM	71.4 µM	> 100 µM	> 100 µM	> 100 µM	56.8 µM	> 100 µM	> 100 µM	> 100 µM	> 100 µM	> 100 µM	19.3 µM	> 100 µM	> 100 µM	> 100 µM	35 µM	> 100 µM	14 µM	51.4 µM
O=c1oc2cc(N=Cc3ccccc3Cl)ccc2c2ccccc12	–	> 100 µM	–	> 100 µM	–	> 100 µM	–	> 100 µM	–	> 100 µM	–	> 100 µM	–	> 100 µM	–	> 100 µM	–	> 100 µM	–	> 100 µM
CC(C)N(C(=O)C12C3C4C5C3C1(C(=O)N(C(C)C)C(C)C)C5(C#N)C42)C(C)C (stereo not drawn)	–	> 100 µM	–	> 100 µM	–	> 100 µM	–	51.6 µM	–	> 100 µM	–	> 100 µM	–	66.4 µM	–	> 100 µM	–	73 µM	–	> 100 µM
Cc1c(C)c2c(c(C)c1NC(=O)/C=C\C(=O)O)CCC(C)(CCCC(C)CCCC(C)CCCC(C)C)O2 (stereo not drawn)	1.61 µM	2.97 µM	1.73 µM	3.3 µM	1.94 µM	4.88 µM	1.79 µM	6.11 µM	1.37 µM	2.75 µM	1.57 µM	3.37 µM	1.61 µM	4.63 µM	1.66 µM	3.25 µM	2.3 µM	7.16 µM	1.72 µM	3.83 µM
O=C(O)c1c[nH]c2c(=O)[nH]cnc12	–	> 100 µM	–	> 100 µM	–	> 100 µM	–	> 100 µM	–	> 100 µM	–	> 100 µM	–	> 100 µM	–	> 100 µM	–	> 100 µM	–	> 100 µM
NC(C/[N+]([O-])=N/O)C(=O)O (stereo not drawn)	20.1 µM and 44.5 µM and 13 µM	> 100 µM and 342 µM	14.6 µM and > 100 µM and 10.5 µM	> 464 µM	0.107 µM and 0.967 µM and 0.348 µM	> 24.7 µM and > 100 µM and 256 µM	> 29.3 µM and 11.3 µM	> 100 µM and 418 µM	28.9 µM and 37.5 µM and 24.4 µM	> 459 µM	–	> 100 µM and 371 µM	–	> 228 µM	9.22 µM and 19.7 µM and 15.1 µM	> 100 µM and 417 µM	29.5 µM and 11.2 µM and 15 µM	> 419 µM	18 µM and 68.2 µM and 52.5 µM	> 100 µM and 456 µM
O=C(Cc1nc2ccccc2c(=O)n1-c1c(Cl)cccc1Cl)c1ccncc1	–	77.8 µM	–	> 100 µM	–	49.7 µM	–	45.2 µM	–	> 100 µM	–	> 100 µM	–	39.8 µM	–	> 100 µM	–	> 100 µM	–	54.3 µM
N#CCCN(CCC#N)C(=O)c1cccc(C(=O)N(CCC#N)CCC#N)c1	–	> 100 µM	–	> 58.3 µM	–	> 100 µM	–	> 100 µM	–	> 100 µM	–	> 63.9 µM	–	> 68.4 µM	–	26.5 µM	–	> 100 µM	–	> 100 µM
C=CCn1c(=O)c2cnc(Nc3ccc(N4CCN(C)CC4)cc3)nc2n1-c1ccc2c(n1)[C@@](O)(CC)CC2	0.333 µM	2.86 µM	0.507 µM	> 55.7 µM	0.212 µM	13.6 µM	0.2 µM	1.81 µM	0.225 µM	5.81 µM	1.12 µM	22.5 µM	0.193 µM	1.38 µM	0.525 µM	> 100 µM	0.325 µM	> 34.8 µM	1.75 µM	18.1 µM
O=C(C/C(=N\NC(=O)C[n+]1ccccc1)C(=O)Nc1nc2ccc([N+](=O)[O-])cc2s1)CC(c1ccccc1)c1c(O)c2ccccc2oc1=O (stereo not drawn)	–	> 100 µM	–	> 100 µM	–	> 100 µM	–	> 100 µM	–	> 100 µM	–	> 100 µM	–	> 100 µM	–	> 100 µM	–	> 100 µM	–	> 100 µM
NC(N)=NS(=O)(=O)c1ccc(Nc2c3ccccc3nc3c(C(=O)N4CCN(CCO)CC4)cccc23)cc1	–	> 100 µM	–	> 100 µM	–	> 100 µM	–	> 100 µM	–	> 100 µM	–	> 100 µM	–	> 100 µM	–	> 100 µM	–	> 100 µM	–	> 100 µM
O=C(/C=C/c1ccccc1)c1c[nH]c2ccccc2c1=O	2.03 µM	4.37 µM	3.54 µM	15.5 µM	3.67 µM	16.4 µM	2.88 µM	9.97 µM	3.49 µM	11.6 µM	3.95 µM	20.1 µM	2.62 µM	> 100 µM	2.76 µM	10 µM	2.74 µM	54.8 µM	3.56 µM	15.1 µM
C=C1C(=O)O[C@H]2[C@H]1CC/C(Cn1cc(CNCCc3c[nH]c4ccc(Cl)cc34)nn1)=C\CC[C@@]1(C)O[C@@H]21	2.44 µM	6.5 µM	2.54 µM	8.24 µM	2.44 µM	9.59 µM	1.72 µM	5.08 µM	13.7 µM	31.2 µM	15.5 µM	37.4 µM	3.01 µM	9.66 µM	1.82 µM	3.88 µM	2.91 µM	25.2 µM	10.7 µM	27 µM
COc1ccc(-c2nn(-c3ccc(NC(=O)c4ccc(Cl)c(C(F)(F)F)c4)cc3)cc2-c2ccncc2)cc1Cl	1.99 µM	> 100 µM	2.34 µM	> 100 µM	9.68 µM	> 100 µM	0.582 µM	> 100 µM	0.471 µM	3.08 µM	1.87 µM	> 100 µM	0.316 µM	> 100 µM	1.06 µM	> 100 µM	0.706 µM	> 100 µM	4.68 µM	> 94.9 µM
Cc1ccc(NC(=O)CC/C(CC(=O)C(C)(C)C)=N/NC(=O)C(N)=O)cc1C	–	> 100 µM	–	> 100 µM	–	> 100 µM	–	> 100 µM	–	> 100 µM	–	> 100 µM	–	> 100 µM	–	> 100 µM	–	> 100 µM	–	> 100 µM
